For one series, the target named is T1, rhBMP-2 (Homo sapiens, UniProt P12643).
T1 construct: purchased R&D Systems, Minneapolis, Minn
T1 sequence (P12643 283-396): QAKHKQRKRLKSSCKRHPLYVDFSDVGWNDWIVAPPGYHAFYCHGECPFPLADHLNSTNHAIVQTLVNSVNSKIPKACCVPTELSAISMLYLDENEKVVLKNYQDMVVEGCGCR
As to the kind of experiment: Surface plasmon resonance kinetic analysis (Biacore X), ligand rhBMP-2. The class given is binding. The method, then:
(§1) The supernatant was decanted and used for analyses. Protein concentrations were determined suing UV spectroscopy at an absorbance of 280 nm. Extinction coefficients were calculated using ProtParam tool (www.expasy.ch/tools/protparam.html). Flow rates ranged from 5 to 50 μl/min, and injection volumes were 20 to 100 μl. To ensure uniformity, an effort was made to react sufficient ligand to the chip to give a baseline value of about 2500 RU (response units). The kinetic constants ka (on rate, association constant, “recognition”) and kd (off rate, dissociation constant, “stability”) as well as the equilibrium constant KD (equilibrium constant, “affinity”) were determined by a Langmuir analysis using BIAevaluation software (version 3.2) installed on the instrument by the manufacturer.
(SPR reads the build-up and loss of mass on a sensor chip optically.)

The next series concerns rhTGF-β. The series is described as follows: Surface plasmon resonance kinetic analysis (Biacore X), ligand rhTGF-β. The series is classed as binding, human. As to the method: as §1
The target in a further series is T2, rhOP-1 (rhBMP-7) (Homo sapiens, UniProt P18075).
T2 construct: purchased R&D Systems, Minneapolis, Minn
T2 sequence (P18075 293-431): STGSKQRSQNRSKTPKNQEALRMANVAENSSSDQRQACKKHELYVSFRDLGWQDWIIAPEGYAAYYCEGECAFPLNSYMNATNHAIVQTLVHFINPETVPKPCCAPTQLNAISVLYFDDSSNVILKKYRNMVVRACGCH
The series is described as follows: Surface plasmon resonance kinetic analysis (Biacore X), ligand rhOP-1. The series is classed as binding. The settings on record: ligand rhOP-1 (rhBMP-7). The method, then: as §1

A further series concerns the target T3, rmGDF-5 (Mus musculus, UniProt P43027).
T3 construct: purchased R&D Systems, Minneapolis, Minn
T3 sequence (P43027 376-495): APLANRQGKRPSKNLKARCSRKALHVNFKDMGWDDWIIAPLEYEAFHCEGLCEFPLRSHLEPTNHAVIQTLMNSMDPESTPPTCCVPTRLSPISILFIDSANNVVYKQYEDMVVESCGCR
The series is described as follows: Surface plasmon resonance kinetic analysis (Biacore X), ligand rmGDF-5. The class given is binding. As to the method: The supernatant was decanted and used for analyses. […] Extinction coefficients were calculated using ProtParam tool (www.expasy.ch/tools/protparam.html). Flow rates ranged from 5 to 50 μl/min, and injection volumes were 20 to 100 μl. To ensure uniformity, an effort was made to react sufficient ligand to the chip to give a baseline value of about 2500 RU (response units).

Another series relates to Swiss-Weber mice. As to the kind of experiment: Mouse hindquarter (muscle pouch) ectopic bone formation assay, BBP alone or with rhBMP-2. The series is classed as in vivo. The settings on record: for Bone Area / Bone Mineral Content: 21 days, mean SE. As to the method: The osteogenic activity of material was tested using male Swiss-Weber mice aged 8 to 10 weeks were used (Taconic Farms, Germantown, N.Y.). […] The dried material was placed in a #5 gelatin capsule and sterilized by exposure to chloroform vapor. To conduct the assay, mice were anesthetized using 1% isoflurane delivered in oxygen at 2 l/min through a small animal anesthesia machine (VetEquip, Pleasanton, Calif.). Animals were affixed to a surgery board and the fur over the hindquarters shaved. The skin was cleaned with 70% ethanol and a midline incision made over the spine adjacent to the hindquarters. Blunt dissection with scissors was used to expose the quadriceps muscle on one side. A small pouch was made in the muscle using the point of scissors and the #5 capsule containing the test material was inserted into the pouch. The skin was then closed with three 11 mm Michel surgical clips and the animal returned to its cage for monitoring.
After 21 days the animals were killed and the hindquarter removed. Radiological examination of the specimens was accomplished using a small parts X-Ray cabinet (Faxitron, Wheeling, Ill.). For quantization of bone formation, bone area and the bone mineral content (BMC) of an area of interest encompassing the site of ectopic bone formation was determined using a PIXImus2 small animal densitometer (GE Lunar, Madison, Wis.). Specimens were then placed in buffered formalin and submitted for routine processing for histological examination.

In a further series the test system is Lewis rats. The series is described as follows: Posterolateral intertransverse process spinal fusion at L4-L5 (radiographs, manual palpation, micro-CT). The class given is in vivo, rat. The settings on record: ACS with 1000 μg BBP, no rhOP-1, 8 weeks. The text has this: A total of 120 male Lewis rats (8 weeks of age, 200-260 g, Charles River, Wilmington, Mass.) were divided into 8 groups. Groups differed only by the materials added to the ACS (5×5×13 mm) that were applied to the surgical sites. The preparation of the implants was previously described in detail. (Alanay, et al., The adjunctive effect of a binding peptide on bone morphogenetic protein enhanced bone healing in a rodent model of spinal fusion. Spine 2008; 33:1709-13). Implanted rhOP-1 was obtained from Stryker Biotech, Hopkinton, Mass. […] Animals were sacrificed 8 weeks after surgery with CO2.
Surgical Technique. Animals were anesthetized with 2-2.5% isoflurane administered in oxygen (1 L/min) and the surgical site was shaved and disinfected with alternative betadine and 70% alcohol. Animals were premedicated with 0.15 mg buprenorphine and postoperatively received tapered doses every 12 hours for 2 days. […]
Radiographic Analysis. […] Radiographs were evaluated by 3 independent observers employing the following standardized scale: 0: no fusion; 1: incomplete fusion with bone formation present; and 2: complete fusion. […]
Manual Assessment of Fusion. Eight weeks after surgery, the spines were removed and evaluated by three blinded independent observers for intersegmental motion. […] Spines were scored as either fused or not fused. […]

The mark [1] stands for this setting: BBP 50 μg implanted with 5 μg of rhBMP-2, densitometry.
Setting [2] is: BBP 500 μg implanted with 5 μg of rhBMP-2, densitometry.

Regarding `CSCC[C@@H]1NC(=O)[C@H](CCCNC(=N)N)NC(=O)[C@H](C(C)C)NC(=O)[C@H]([C@@H](C)O)NC(=O)[C@H](CO)NC(=O)[C@H](CCCNC(=N)N)NC(=O)[C@@H](N)CSSC[C@@H](C(=O)O)NC(=O)[C@H](CCCNC(=N)N)NC(=O)[C@H](C(C)C)NC(=O)[C@H](Cc2c[nH]c3ccccc23)NC(=O)[C@H](C(C)C)NC(=O)[C@H](CC(N)=O)NC(=O)[C@H](CCC(N)=O)NC(=O)[C@H](C(C)C)NC(=O)[C@H](CCC(N)=O)NC(=O)[C@H](CCC(=O)O)NC(=O)[C@H](C)NC(=O)[C@H](CO)NC1=O` [BBP], the “kd “stability”” value at rhBMP-2 (ligand rhBMP-2) was 0.00169 s⁻¹; at rhTGF-β (ligand rhTGF-β) it was 0.00175 s⁻¹; at rhOP-1 (rhBMP-7) it was 0.00369 s⁻¹; on rmGDF-5, 0.00352 s⁻¹. Moreover, in the series with rhTGF-β (ligand rhTGF-β), the “ka “recognition”” value is 27700 M⁻¹ s⁻¹. Further, on rhTGF-β (ligand rhTGF-β on CM-5 chip, Langmuir analysis), the “KD (kd/ka) “affinity”” value was 68 nM. The “amount of ectopic bone formed, measured by densitometry, versus identical amount of rhBMP-2 alone” value in the series with Swiss-Weber mice (500 μg of BBP implanted with 5 μg of rhBMP-2) is given as “consistently greater”. In the series with Swiss-Weber mice (500 μg of BBP in atelocollagen, 21 days after implantation, H & E stain), the “histological section of mouse muscle” value was “dystrophic calcification primarily associated with intramuscular adipose tissue”. Further, the “calcification when implanted alone with carrier (radiogram)” value in the series with Swiss-Weber mice (500 μg of BBP in atelocollagen, mouse hind quarters, 21 days after implantation) is on record as “induced calcification”. Also, the “Bone Area” value in the series with Swiss-Weber mice (setting [1]) amounted to 0.159 ± 0.0606 cm^2; with Swiss-Weber mice (setting [2]), 0.226 ± 0.0270 cm^2. Besides, the “Bone Mineral Content” value with Swiss-Weber mice (setting [1]) was found to be 0.00388 ± 0.0017 g; in the series on Swiss-Weber mice (setting [2]), 0.00528 ± 0.00068 g. In addition, the “ectopic calcification in BBP only treatment groups” value with Lewis rats is “Nor was ectopic calcification observed”. Further, the “induction of spinal fusion by BBP by itself” value in the series on Lewis rats is on record as “did not induce any degree of fusion”.

B1: spp24: parental protein of BBP, secreted phosphoprotein, 24 kD (protein)
chain: FPVYDYDPASLKEALSASVAKVNSQSLSPYLFRAFRSSVKRVNALDEDSLTMDLEFRIQETTCRRESEADPATCDFQRGYHVPVAVCRSTVRMSAEQVQNVWVRCHWSSSSGSSSSEEMFFGDILGSSTSRNSYLLGLTPDRSRGEPLYEPSREMRRNFPLGNRRYSNPWPRARVNPGFE
Consider B1, for which, in the series with rhBMP-2 (ligand rhBMP-2), the “ka “recognition”” value is 311000 M⁻¹ s⁻¹ and the “kd “stability”” value came to 0.0055 s⁻¹. Also, the “KD (kd/ka) “affinity”” value with rhBMP-2 (ligand rhBMP-2 on CM-5 chip, Langmuir analysis) was 17.7 nM.
